# Assay results taken from ChEMBL document CHEMBL1649519, “Mitochondrial DNA depletion in rat liver induced by fosalvudine tidoxil, a novel nucleoside reverse transcriptase inhibitor prodrug” (Antimicrob Agents Chemother, 2009).
# Experiments:
# Conditions in all cases: in vivo
# Rattus norvegicus [1] = test: Toxicity in Sprague-Dawley rat assessed as mortality at 100 mg/kg, po administered via gavage; type: organism-based; set-up: dose 100 mg/kg, route oral
# Rattus norvegicus [2] = test: Toxicity in Sprague-Dawley rat assessed as terminal body weight at 100 mg/kg, po administered via gavage (reference value: 517 +/- 55 g); type: organism-based; set-up: dose 100 mg/kg, route oral
# Rattus norvegicus [3] = test: Toxicity in Sprague-Dawley rat assessed as liver weight at 100 mg/kg, po administered via gavage (reference value: 18 +/- 2.8 g); type: organism-based; set-up: dose 100 mg/kg, route oral
# Rattus norvegicus [4] = test: Hepatotoxicity in Sprague-Dawley rat assessed as plasma GPT level at 100 mg/kg, po administered via gavage (reference value: 78.3 +/- 8.2 U/l); type: toxicity, organism-based; set-up: dose 100 mg/kg, route oral
# Rattus norvegicus [5] = test: Hepatotoxicity in Sprague-Dawley rat assessed as effect on plasma total bilirubin level at 15 to 100 mg/kg, po administered via gavage; type: toxicity, organism-based; set-up: dose 15-100 mg/kg, route oral
# Rattus norvegicus [6] = test: Hepatotoxicity in Sprague-Dawley rat assessed as copies of mitochondrial DNA per cell in liver at 100 mg/kg, po administered via gavage (reference value: 400 +/- 86 no_unit); type: toxicity, organism-based; set-up: dose 100 mg/kg, route oral
# Rattus norvegicus [7] = test: Hepatotoxicity in Sprague-Dawley rat assessed as copies of mitochondrial DNA per cell in gastrocnemius muscle at 100 mg/kg, po administered via gavage (reference value: 457 +/- 182 no_unit); type: toxicity, organism-based; set-up: dose 100 mg/kg, route oral
# Rattus norvegicus [8] = test: Hepatotoxicity in Sprague-Dawley rat assessed as copies of mitochondrial DNA per cell in inguinal fat pads at 100 mg/kg, po administered via gavage (reference value: 457 +/- 182 no_unit); type: toxicity, organism-based, Fat pad; set-up: dose 100 mg/kg, route oral
# Rattus norvegicus [9] = test: Hepatotoxicity in Sprague-Dawley rat assessed as copies of mitochondrial DNA per cell in sciatic nerves at 100 mg/kg, po administered via gavage (reference value: 457 +/- 182 no_unit); type: toxicity, organism-based, Sciatic nerve; set-up: dose 100 mg/kg, route oral
# Rattus norvegicus [10] = test: Toxicity in Sprague-Dawley rat assessed as mortality at 15 mg/kg, po administered via gavage; type: organism-based; set-up: dose 15 mg/kg, route oral
# Rattus norvegicus [11] = test: Toxicity in Sprague-Dawley rat assessed as mortality at 40 mg/kg, po administered via gavage; type: organism-based; set-up: dose 40 mg/kg, route oral
# Rattus norvegicus [12] = test: Toxicity in Sprague-Dawley rat assessed as terminal body weight at 15 mg/kg, po administered via gavage (reference value: 517 +/- 55 g); type: organism-based; set-up: dose 15 mg/kg, route oral
# Rattus norvegicus [13] = test: Toxicity in Sprague-Dawley rat assessed as terminal body weight at 40 mg/kg, po administered via gavage (reference value: 517 +/- 55 g); type: organism-based; set-up: dose 40 mg/kg, route oral
# Rattus norvegicus [14] = test: Toxicity in Sprague-Dawley rat assessed as liver weight at 15 mg/kg, po administered via gavage (reference value: 18 +/- 2.8 g); type: organism-based; set-up: dose 15 mg/kg, route oral
# Rattus norvegicus [15] = test: Toxicity in Sprague-Dawley rat assessed as liver weight at 40 mg/kg, po administered via gavage (reference value: 18 +/- 2.8 g); type: organism-based; set-up: dose 40 mg/kg, route oral
# Rattus norvegicus [16] = test: Hepatotoxicity in Sprague-Dawley rat assessed as plasma GPT level at 15 mg/kg, po administered via gavage (reference value: 78.3 +/- 8.2 U/l); type: toxicity, organism-based; set-up: dose 15 mg/kg, route oral
# Rattus norvegicus [17] = test: Hepatotoxicity in Sprague-Dawley rat assessed as plasma GPT level at 40 mg/kg, po administered via gavage (reference value: 78.3 +/- 8.2 U/l); type: toxicity, organism-based; set-up: dose 40 mg/kg, route oral
# Rattus norvegicus [18] = test: Hepatotoxicity in Sprague-Dawley rat assessed as copies of mitochondrial DNA per cell in liver at 15 mg/kg, po administered via gavage (reference value: 400 +/- 86); type: toxicity, organism-based; set-up: dose 15 mg/kg, route oral
# Rattus norvegicus [19] = test: Hepatotoxicity in Sprague-Dawley rat assessed as copies of mitochondrial DNA per cell in liver at 40 mg/kg, po administered via gavage (reference value: 400 +/- 86); type: toxicity, organism-based; set-up: dose 40 mg/kg, route oral
# Rattus norvegicus [20] = test: Hepatotoxicity in Sprague-Dawley rat assessed as copies of mitochondrial DNA per cell in gastrocnemius muscle at 15 mg/kg, po administered via gavage (reference value: 457 +/- 182 no_unit); type: toxicity, organism-based; set-up: dose 15 mg/kg, route oral
# Rattus norvegicus [21] = test: Hepatotoxicity in Sprague-Dawley rat assessed as copies of mitochondrial DNA per cell in gastrocnemius muscle at 40 mg/kg, po administered via gavage (reference value: 457 +/- 182 no_unit); type: toxicity, organism-based; set-up: dose 40 mg/kg, route oral
# Rattus norvegicus [22] = test: Hepatotoxicity in Sprague-Dawley rat assessed as copies of mitochondrial DNA per cell in inguinal fat pads at 15 mg/kg, po administered via gavage (reference value: 457 +/- 182 no_unit); type: toxicity, organism-based, Fat pad; set-up: dose 15 mg/kg, route oral
# Rattus norvegicus [23] = test: Hepatotoxicity in Sprague-Dawley rat assessed as copies of mitochondrial DNA per cell in inguinal fat pads at 40 mg/kg, po administered via gavage (reference value: 457 +/- 182 no_unit); type: toxicity, organism-based, Fat pad; set-up: dose 40 mg/kg, route oral
# Rattus norvegicus [24] = test: Hepatotoxicity in Sprague-Dawley rat assessed as copies of mitochondrial DNA per cell in sciatic nerves at 15 mg/kg, po administered via gavage (reference value: 457 +/- 182 no_unit); type: toxicity, organism-based, Sciatic nerve; set-up: dose 15 mg/kg, route oral
# Rattus norvegicus [25] = test: Hepatotoxicity in Sprague-Dawley rat assessed as copies of mitochondrial DNA per cell in sciatic nerves at 40 mg/kg, po administered via gavage (reference value: 457 +/- 182 no_unit); type: toxicity, organism-based, Sciatic nerve; set-up: dose 40 mg/kg, route oral
smiles,measurement,setting,value
O=c1[nH]cnc2c1ncn2[C@H]1CC[C@@H](CO)O1 [DIDANOSINE],Activity,Rattus norvegicus [1],Non-toxic
same,Activity,Rattus norvegicus [2],501 g
same,Activity,Rattus norvegicus [3],16.2 g
same,Activity,Rattus norvegicus [4],68.8 U/L
same,Activity,Rattus norvegicus [5],Non-toxic
same,Activity,Rattus norvegicus [6],193
same,Activity,Rattus norvegicus [7],489
same,Activity,Rattus norvegicus [8],129
same,Activity,Rattus norvegicus [9],219
CCCCCCCCCCCCSC[C@@H](COP(=O)(O)OC[C@H]1O[C@@H](n2cc(C)c(=O)[nH]c2=O)C[C@@H]1F)OCCCCCCCCCC [FOSALVUDINE TIDOXIL],Activity,Rattus norvegicus [10],Toxic
same,Activity,Rattus norvegicus [11],Toxic
same,Activity,Rattus norvegicus [1],Toxic
same,Activity,Rattus norvegicus [12],459 g
same,Activity,Rattus norvegicus [13],465 g
same,Activity,Rattus norvegicus [2],428 g
same,Activity,Rattus norvegicus [14],16.8 g
same,Activity,Rattus norvegicus [15],15.6 g
same,Activity,Rattus norvegicus [3],14.5 g
same,Activity,Rattus norvegicus [16],71 U/l
same,Activity,Rattus norvegicus [17],80.5 U/L
same,Activity,Rattus norvegicus [4],96.7 U/L
same,Activity,Rattus norvegicus [5],Non-toxic
same,Activity,Rattus norvegicus [18],249
same,Activity,Rattus norvegicus [19],254
same,Activity,Rattus norvegicus [6],188
same,Activity,Rattus norvegicus [20],475
same,Activity,Rattus norvegicus [21],534
same,Activity,Rattus norvegicus [7],548
same,Activity,Rattus norvegicus [22],134
same,Activity,Rattus norvegicus [23],159
same,Activity,Rattus norvegicus [8],158
same,Activity,Rattus norvegicus [24],196
same,Activity,Rattus norvegicus [25],205
same,Activity,Rattus norvegicus [9],213
